ChEMBL document CHEMBL3525932, “Comparison of metabolism of sesamin and episesamin by drug-metabolizing enzymes in human liver” (Drug Metab Dispos, 2012)

What was measured:
[1] = Drug metabolism in human liver microsomes assessed as CYP450-mediated catecholization per mg of protein after 10 to 30 mins by HPLC analysis in presence of NADPH; type: ADME
Liver microsome [2] = assay: Drug metabolism in human liver microsomes assessed as sesamin monocatechol formation after 30 mins by HPLC analysis in presence of NADPH; type: ADME; settings: 0.5 h
CYP2C9 = CYP2C9 (Homo sapiens, UniProt P11712); assay: Ratio of Kinact to Ki(app) for mechanism-based inhibition of recombinant human CYP2C9 expressed in microsomes isolated from Saccharomyces cerevisiae AH22 cells assessed as diclofenac 4'-hydroxylation preincubated for 5 to 10 mins followed by substrate addition measured after 15 mins by HPLC analysis; type: ADME, cell-based; settings: probe diclofenac (4'-hydroxylation)
CYP2C9, sequence (P11712 whole entry): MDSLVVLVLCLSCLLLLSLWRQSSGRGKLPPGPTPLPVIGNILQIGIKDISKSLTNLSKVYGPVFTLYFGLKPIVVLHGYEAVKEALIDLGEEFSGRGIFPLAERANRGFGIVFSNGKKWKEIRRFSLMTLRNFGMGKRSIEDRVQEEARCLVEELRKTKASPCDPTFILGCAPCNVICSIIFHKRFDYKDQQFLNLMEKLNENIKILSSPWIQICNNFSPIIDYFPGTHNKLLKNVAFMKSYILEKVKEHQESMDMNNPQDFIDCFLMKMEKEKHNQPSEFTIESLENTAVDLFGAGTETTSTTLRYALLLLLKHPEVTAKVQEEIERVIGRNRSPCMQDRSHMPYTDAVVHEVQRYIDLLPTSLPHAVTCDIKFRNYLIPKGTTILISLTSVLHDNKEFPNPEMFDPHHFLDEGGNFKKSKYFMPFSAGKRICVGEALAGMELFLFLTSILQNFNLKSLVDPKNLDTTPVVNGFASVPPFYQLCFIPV

Cytochrome P450 2C19 [3] = target: T1, Cytochrome P450 2C19 (Homo sapiens, UniProt P33261); assay: Activity of recombinant human CYP2C19 expressed in Saccharomyces cerevisiae AH22 cells assessed as enzyme-mediated sesamin dicatechol/monocatechol formation at 2 to 20 uM after 15 mins by HPLC analysis in presence of NADPH; type: ADME, cell-based; settings: ah22, 0.25 h
T1 sequence (P33261 whole entry): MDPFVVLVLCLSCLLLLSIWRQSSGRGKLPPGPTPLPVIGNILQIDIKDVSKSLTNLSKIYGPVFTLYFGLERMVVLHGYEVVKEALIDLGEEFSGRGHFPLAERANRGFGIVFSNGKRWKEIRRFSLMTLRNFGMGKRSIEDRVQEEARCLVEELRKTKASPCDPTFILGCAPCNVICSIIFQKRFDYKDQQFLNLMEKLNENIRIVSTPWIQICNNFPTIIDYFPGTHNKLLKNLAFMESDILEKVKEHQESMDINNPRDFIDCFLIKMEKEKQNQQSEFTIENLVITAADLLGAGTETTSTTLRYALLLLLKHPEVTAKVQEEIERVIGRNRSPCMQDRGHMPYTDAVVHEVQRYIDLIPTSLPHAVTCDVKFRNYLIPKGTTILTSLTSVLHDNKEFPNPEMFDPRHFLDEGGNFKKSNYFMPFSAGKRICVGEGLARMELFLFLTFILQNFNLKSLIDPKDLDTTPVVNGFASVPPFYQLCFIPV

[4] = Drug metabolism in Sprague-Dawley rat liver microsomes assessed as CYP450-mediated catecholization per mg of protein after 10 to 30 mins by HPLC analysis in presence of NADPH; type: ADME
CYP450 [5] = assay: Drug metabolism in Sprague-Dawley rat liver microsomes assessed as CYP450-mediated catecholization after 10 to 30 mins by HPLC analysis in presence of NADPH; type: ADME
CYP450 [6] = assay: Drug metabolism in human liver microsomes assessed as CYP450-mediated catecholization after 10 to 30 mins by HPLC analysis in presence of NADPH; type: ADME
UGT [7] = assay: Drug metabolism in Sprague-Dawley rat liver microsomes assessed as UGT-mediated glucuronidation after 10 to 30 mins by HPLC analysis in presence of UDP-GlcUA; type: ADME
[8] = Drug metabolism in Sprague-Dawley rat liver microsomes assessed as UGT-mediated glucuronidation per mg of protein after 10 to 30 mins by HPLC analysis in presence of UDP-GlcUA; type: ADME
[9] = Drug metabolism in human liver microsomes assessed as UGT-mediated glucuronidation per mg of protein after 10 to 30 mins by HPLC analysis in presence of UDP-GlcUA; type: ADME
Cytochrome P450 2C19 [10] = target: T1, Cytochrome P450 2C19; assay: Activity of recombinant human CYP2C19 expressed in Saccharomyces cerevisiae AH22 cells assessed as enzyme-mediated compound formation treated with sesamin at 2 to 20 uM after 15 mins by HPLC analysis in presence of NADPH; type: ADME, cell-based; settings: ah22, 0.25 h
Liver microsome [11] = assay: Drug level in human liver microsomes treated with sesamin after 30 mins by HPLC analysis in presence of NADPH; type: ADME; settings: 0.5 h
Cytochrome P450 2C19 [12] = target: T1, Cytochrome P450 2C19; assay: Activity of recombinant human CYP2C19 expressed in Saccharomyces cerevisiae AH22 cells assessed as enzyme-mediated sesamin dicatechol formation after 15 mins by HPLC analysis in presence of NADPH; type: ADME, cell-based; settings: ah22, 0.25 h
Cytochrome P450 2C9 = Cytochrome P450 2C9 (Homo sapiens, UniProt P11712); assay: Activity of recombinant human CYP2C9 expressed in Saccharomyces cerevisiae AH22 cells assessed as enzyme-mediated sesamin dicatechol formation after 15 mins by HPLC analysis in presence of NADPH; type: ADME, cell-based; settings: ah22, 0.25 h
Cytochrome P450 2C9, sequence (P11712 whole entry): as the sequence (P11712 whole entry) above

UGT [13] = assay: Drug metabolism in human liver microsomes assessed as UGT-mediated glucuronidation after 10 to 30 mins by HPLC analysis in presence of UDP-GlcUA; type: ADME

| Km (UGT [7]) [µM] | Vmax [8] [nmol/min/mg] | Vmax [9] [nmol/min/mg] | Drug metabolism (Cytochrome P450 2C19 [10]) | Drug metabolism (Liver microsome [11]) | Drug metabolism (Cytochrome P450 2C19 [12]) [nmol/min] | Drug metabolism (Cytochrome P450 2C9) [nmol/min] | Km (UGT [13]) [µM] | Compound | Vmax [1] [nmol/min/mg] | Drug metabolism (Liver microsome [2]) | kinact/KI at 0.25 h (CYP2C9) [M⁻¹ s⁻¹] | Drug metabolism (Cytochrome P450 2C19 [3]) | Vmax [4] [nmol/min/mg] | Km (CYP450 [5]) [µM] | Km (CYP450 [6]) [µM] |
| --- | --- | --- | --- | --- | --- | --- | --- | --- | --- | --- | --- | --- | --- | --- | --- |
| – | – | – | – | – | – | – | – | c1cc2c(cc1[C@H]1OC[C@H]3[C@@H]1CO[C@@H]3c1ccc3c(c1)OCO3)OCO2 [SESAMIN] | 0.81 | metabolite_detected | 2330 | metabolite_detected | 4.8 | 7.1 | 7.7 |
| 20.3 | 1.1 | 6 | metabolite_detected | metabolite_detected | 10.4 | 0.83 | 18 | Oc1ccc([C@H]2OC[C@H]3[C@@H]2CO[C@@H]3c2ccc3c(c2)OCO3)cc1O | 0.44 | – | – | – | 3.7 | 5.3 | 18.8 |
